Test results reported in patent US8883776B2, “Cycloalkyloxy- and heterocycloalkyloxypyridine compounds as modulators of the histamine H3 receptor” (Janssen Pharmaceutica N.V., priority 2007, dated 2014).
Counter-ions that a name gives are not always drawn.

Key:
[1] = molecular target: T1, cloned human H3 receptors (Homo sapiens, UniProt Q9Y5N1); assay: H3 Receptor Binding (Human); details: cloned human H3 receptors stably expressed in SK-N-MC cells; average of results
T1 construct: expressed in transfected cells
T1 sequence (Q9Y5N1 whole entry): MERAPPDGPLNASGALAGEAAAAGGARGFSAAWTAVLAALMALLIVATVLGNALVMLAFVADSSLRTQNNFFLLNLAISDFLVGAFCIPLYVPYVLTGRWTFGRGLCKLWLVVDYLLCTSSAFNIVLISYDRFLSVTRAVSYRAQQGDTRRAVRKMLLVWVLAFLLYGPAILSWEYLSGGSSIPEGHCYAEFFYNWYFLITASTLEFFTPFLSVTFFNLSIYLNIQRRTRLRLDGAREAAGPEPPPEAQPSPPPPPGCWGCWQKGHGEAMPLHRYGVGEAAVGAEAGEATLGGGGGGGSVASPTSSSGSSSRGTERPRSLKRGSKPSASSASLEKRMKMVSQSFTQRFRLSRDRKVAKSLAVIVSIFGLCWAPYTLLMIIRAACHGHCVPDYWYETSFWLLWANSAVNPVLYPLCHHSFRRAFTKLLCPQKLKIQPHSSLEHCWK
Description: H3 Receptor Binding (Human)
Binding of compounds to the cloned human H3 receptors, stably expressed in SK-N-MC cells, was performed as described by Barbier, A. J. et al. (Br. J. Pharmacol. 2004, 143(5), 649-661).

rat H3 receptor [2] = molecular target: T2, rat H3 receptor (Rattus norvegicus, UniProt Q9QYN8); assay: H3 Receptor Binding (Rat), rat brain membranes, N-[3H]-α-methylhistamine; details: rat brain without cerebellum membranes; 0.8 nM N-[3H]-α-methylhistamine; average of results
T2 sequence (Q9QYN8 whole entry): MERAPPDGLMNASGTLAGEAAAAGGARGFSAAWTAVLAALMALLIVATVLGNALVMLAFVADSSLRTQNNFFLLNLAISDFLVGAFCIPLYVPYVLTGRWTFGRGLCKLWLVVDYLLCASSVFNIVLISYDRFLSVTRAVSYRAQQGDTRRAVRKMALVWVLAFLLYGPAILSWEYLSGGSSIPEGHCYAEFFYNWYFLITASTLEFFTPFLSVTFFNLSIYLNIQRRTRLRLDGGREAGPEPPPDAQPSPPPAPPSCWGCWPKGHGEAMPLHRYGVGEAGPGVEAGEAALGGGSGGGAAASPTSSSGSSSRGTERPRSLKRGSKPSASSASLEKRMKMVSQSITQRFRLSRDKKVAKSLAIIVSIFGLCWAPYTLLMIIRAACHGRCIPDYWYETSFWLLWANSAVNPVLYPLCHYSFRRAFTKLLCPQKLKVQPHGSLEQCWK
Description: H3 Receptor Binding (Rat)
A rat brain without cerebellum (Zivic Laboratories Inc., Pittsburgh, Pa.) was homogenized in 50 mM Tris-HCl/5 mM EDTA and centrifuged at 1,000 rpm for 5 min. The supernatant was removed and recentrifuged at 15,000 rpm for 30 min. Pellets were rehomogenized in 50 mM Tris/5 mM EDTA (pH 7.4). Membranes were incubated with 0.8 nM N—[^3H]-α-methylhistamine plus/minus test compounds for 60 min at 25° C. and harvested by rapid filtration over GF/C glass fiber filters (pretreated with 0.3% polyethylenimine) followed by four washes with buffer. Nonspecific binding was defined in the presence of 100 μM histamine. Inhibitory concentration (responsible for 50% inhibition of maximal effect, IC50) values were determined by a single site curve-fitting program (GraphPad, San Diego, Calif.) and converted to Ki values based on a N—[^3H]-α-methylhistamine dissociation constant (Kd) of 0.8 nM.

human H3 receptor = human H3 receptor (Homo sapiens, UniProt Q9Y5N1); assay: Cyclic AMP Accumulation, SK-N-MC cells expressing reporter construct and human H3 receptor; format: cell-based; details: cAMP accumulation, average of results, read-out: Human pA2 (converted)
Sequence of human H3 receptor (Q9Y5N1 whole entry): as the sequence (Q9Y5N1 whole entry) above
From the text: (§1) Sublines of SK-N-MC cells were created that expressed a reporter construct and either the human or rat H3 receptor. The pA2 values were obtained as described by Barbier et al. (2004).

rat H3 receptor [3] = molecular target: T2, rat H3 receptor; assay: Cyclic AMP Accumulation, SK-N-MC cells expressing reporter construct and rat H3 receptor; format: cell-based; parameters: expressed in transfected cells; host or cells: SK-N-MC sublines with reporter construct; details: cAMP accumulation, average of results, read-out: Rat pA2 (converted)
From the text: as §1

| SMILES | Ki [1] | Ki (rat H3 receptor [2]) | Kb (human H3 receptor) | Kb (rat H3 receptor [3]) |
| --- | --- | --- | --- | --- |
| CC(C)N1CCN(C(=O)c2ccc(OCC3(C)COC3)nc2)CC1 [Example 5, (4-isopropyl-piperazin-1-yl)-[6-(3-methyl-oxetan-3-ylmethoxy)-pyridin-3-yl]-methanone hydrochloride salt] | 5010 nM | – | – | – |
| N#Cc1nc(C(=O)N2CCCN(C3CC3)CC2)ccc1OC1CCCC1 [Example 11, 3-Cyclopentyloxy-6-(4-cyclopropyl-[1,4]diazepane-1-carbonyl)-pyridine-2-carbonitrile] | 6 nM | – | – | – |
| O=C(c1ccc(OC2CCOCC2)nc1)N1CCCN(C2CCC2)CC1 [Example 9, (4-Cyclobutyl-[1,4]diazepan-1-yl)-[6-(tetrahydro-pyran-4-yloxy)-pyridin-3-yl]-methanone] | 0.9 nM | 28 nM | 0.234 nM | 4.37 nM |
| N#Cc1nc(C(=O)N2CCCN(C3CC3)CC2)ccc1OC1CCOC1 (stereo not drawn) [Example 10, 6-(4-Cyclopropyl-[1,4]diazepane-1-carbonyl)-3-(tetrahydro-furan-3-yloxy)-pyridine-2-carbonitrile] | 21 nM | – | – | – |
| CC(C)N1CCCN(C(=O)c2ccc(OC3CCOC3)nc2)CC1 (stereo not drawn) [Example 2, (4-Isopropyl-[1,4]diazepan-1-yl)-[6-(tetrahydro-furan-3-yloxy)-pyridin-3-yl]-methanone hydrochloride salt] | 9 nM | – | – | – |
| CC(C)N1CCN(C(=O)c2ccc(OC3CCOC3)nc2)CC1 (stereo not drawn) [Example 1, (4-isopropyl-piperazin-1-yl)-[6-(tetrahydro-furan-3-yloxy)-pyridin-3-yl]-methanone hydrochloride salt] | 104 nM | – | – | – |
| O=C(c1ccc(OC2CCOC2)nc1)N1CCCN(C2CCC2)CC1 (stereo not drawn) [Example 4, (4-Cyclobutyl-[1,4]diazepan-1-yl)-[6-(tetrahydro-furan-3-yloxy)-pyridin-3-yl]-methanone] | 1.3 nM | 58 nM | 0.331 nM | 14.5 nM |
| O=C(c1ccc(OC2CCOC2)nc1)N1CCCN(C2CC2)CC1 (stereo not drawn) [Example 3, (4-Cyclopropyl-[1,4]diazepan-1-yl)-[6-(tetrahydro-furan-3-yloxy)-pyridin-3-yl]-methanone] | 6.8 nM | – | – | – |
| O=C(c1ccc(OC2CCCC2)nc1)N1CCCN(C2CCC2)CC1 [Example 7, (4-Cyclobutyl-[1,4]diazepan-1-yl)-(6-cyclopentyloxy-pyridin-3-yl)-methanone] | 1.1 nM | 44 nM | 0.49 nM | 4.79 nM |
| N#Cc1nc(C(=O)N2CCCN(C3CC3)CC2)ccc1OC1CCCCC1 [Example 12, 3-Cyclohexyloxy-6-(4-cyclopropyl-[1,4]diazepane-1-carbonyl)-pyridine-2-carbonitrile] | 2.2 nM | – | – | – |
| O=C(c1ccc(OC2CCCCC2)nc1)N1CCCN(C2CCC2)CC1 [Example 8, (4-Cyclobutyl-[1,4]diazepan-1-yl)-(6-cyclohexyloxy-pyridin-3-yl)-methanone] | 0.8 nM | 17 nM | 1.05 nM | 9.77 nM |
| CC(C)N1CCCN(C(=O)c2ccc(OCC3(C)COC3)nc2)CC1 [Example 6, (4-Isopropyl-[1,4]diazepan-1-yl)-[6-(3-methyl-oxetan-3-ylmethoxy)-pyridin-3-yl]-methanone hydrochloride salt] | 37 nM | – | – | – |
